{"source": "patent US7744933B2", "about": "“Use of unsaponifiable components of vegetable oils for preparing a cosmetic and related treatments” (Laboratories Expanscience, priority 1998, dated 2010)", "tested_on": "PAI-1", "assay": "35S-methionine radiolabelling for the synthesis of PAI-1 in chondrocytes (SDS-PAGE, fluorography)", "type": "cell-based, bovine", "details": "24 hours; Piasclédine 300 10 μg/ml or TGF-β1 1 ng/ml; cell+matrix fraction", "method": "The chondrocytes are isolated from calf cartilages as described in the article by Benya et al. (“The progeny of articular chondrocytes synthesize collagen types I and II trimer, but not type II. Verification by cyanogen bromide peptide analysis”, Biochemistry 1977; 16: 865-872). Primary cultures of chondrocytes are used in order to minimize the phenotypic changes. The cultures are plated at the rate of 6.0×10^6 cells per 175-cm^2 dish (for the extraction of RNA), at the rate of 5.0×10^6 cells per well in 6-well plates (9.6 cm^2) (for the labelling of PAI-1) and at the rate of 1.2×10^6 cells in 100-mm Petri dishes (transfection). […]\nThe confluent cultures in 6-well plates (9.6 cm^2) are labelled with [^35S]methionine (40 μCi/nil, Arnersham, France) in the presence of Piasclédine 300® (10 μg/nil) and TGF-β1 (1 ng/ml) for 24 hours. […] The band at 46 kD is determined to correspond to PAI-1 by previous immunoblotting using a rabbit polyclonal anti-PAI-1 antibody (Dako, Copenhagen, Denmark) as described in the article by Laiho M et al., reference cited above.\nIt was observed that the medium contained only minor quantities of newly-synthesized PAI-1. […]"}
{"substance": "TGF-β1: transforming growth factor β1 protein, 1 ng/ml, marketed by R & D Systems, used as positive control", "values": [{"measurement": "PAI-1 fraction (synthesis of PAI-1) versus control cultures", "value": "significantly greater"}]}
